According to patent US8153609B2 (priority 2004, dated 2012):
Several values for one entry are separate records, joined by “and”; a condition that tells them apart may be missing. Equal entries are not always repeated. Structures can show the parent of a compound that is named as a salt. Where two headings read alike, the source gives them in different places.

Columns and labels:
[1] = target: T1, PKA type Iα (RIα/Cα) holoenzyme (Homo sapiens, UniProt P10644); test: Cook coupled spectrophotometric kinase assay, suppression (antagonist) assay, PKA type Iα; type: biochemical; conditions: for Potency: PKA type Iα enzymatic activity, relative to the known Rp-8-Br-cAMPS; for Antagonist / EC50: Table 1 (Example 83), PKA type Iα; for EC50: unit inferred, read-out: EC50 inhibition; for relative potency*: antagonists relative to Rp-8Br-cAMPS
[2] = target: T1, PKA type Iα (RIα/Cα) holoenzyme; test: Cook assay, activation (agonist) assay, RIα holoenzyme; type: biochemical; conditions: Table 1 (Example 83), activation screen 10 μM analog
[3] = target: T2, PKA type IIα (RIIα holoenzyme) (Homo sapiens, UniProt P13861); test: Cook kinase assay, suppression assay, PKA type IIα; type: biochemical; conditions: for relative inhibition*: % antagonist effect with 1 μM Sp-8Br-cAMPS at 250 μM of Rp-cAMPS analog; for EC50RII/EC50RI***: Selectivity for PKA type I (EC50 PKA type II/EC50 PKA type I); for Antagonist / EC50: Table 2, Holo RIIa; for EC50: unit inferred, read-out: EC50 inhibition; for relative potency**: antagonists relative to Rp-8-Br-cAMPS, Holo RIIa; for IC50: reversal of Sp-8-Br-cAMP-mediated PKA type II activation, 1 μM Sp-8-Br cAMPS, 10 nM RIIα holoenzyme, read-out: half-maximal antagonistic effect (IC50 or EC50)
[4] = target: T2, PKA type IIα (RIIα holoenzyme); test: Cook assay, activation of Holo RIIα; conditions: for Agonist: Table 2, Holo RIIa
[5] = tested on: Human peripheral T lymphocytes; test: T lymphocyte proliferation assay (anti-CD3 activated, [3H]thymidine); conditions: Ex vivo testing in T lymphocytes; for Antagonist properties: in presence of agonist Sp-8-Br-cAMPS; for relative potency*: reference compounds = 1.00
[6] = target: PKA type Iα (holo RIα) (Homo sapiens, UniProt P10644); test: Biacore surface competition ligand binding assay, holo RIα; conditions: 10 nM holo RIα; for EC50: Rp-8-AHA cAMPS surface
[7] = tested on: CD4+ T cells of MAIDS-infected C57BL6 mice; conditions: mouse, in vivo
[8] = reversal of Sp-8-Br-cAMP-mediated PKA activation, 1 μM Sp-8-Br-cAMPS, 10 nM RIα holoenzyme, read-out: half-maximal antagonistic effect (IC50 or EC50)

Nc1ncnc2c1nc(-c1ccccc1)n2C1OC2COP(O)(=S)OC2C1O (stereo not shown) [Rp-8-phenyl-cAMPS, (Rp)-8-Phenyladenosine-3′,5′-cyclic phosphorothioic acid]
Potency [1]: 1.28 | Antagonist [1]: yes | EC50 [1]: 1060 nM | relative potency* [1]: 1.28 | Agonist [2]: no | relative inhibition* [3]: 61% | EC50RII/EC50RI*** [3]: 46 | Antagonist [3]: yes | EC50 [3]: 48.6 µM | relative potency** [3]: 0.31 | IC50 [3]: 48.6 µM | Agonist [4]: no | Agonist properties [5]: No | Antagonist properties [5]: Yes

(Rp)-8-(5-Methoxy-2-furyl)adenosine-3′,5′-cyclic phosphorothioic acid tributylammonium salt [Rp-8-(5-MeO-2-FU)-cAMPS]
Agonist properties [5]: No | Antagonist properties [5]: Yes | relative potency* [5]: 0.25

Nc1ncnc2c1nc(-c1ccsc1)n2C1OC2COP(O)(=S)OC2C1O (stereo not shown) [Rp-8-(3-thienyl)-cAMPS]
Potency [1]: 1.83 | Antagonist [1]: yes | relative potency* [1]: 1.83 | IC50 [1, 8]: 739 nM | Agonist [2]: no | Antagonist properties [5]: Yes

Nc1ncnc2c1nc(Br)n2[C@@H]1O[C@@H]2COP(O)(=S)O[C@@H]2C1O (stereo partly shown) [Sp-8-Br-cAMPS, reference compound]
Antagonist [3]: no | Agonist [4]: yes | EC50 ([4]; read-out: EC50 (activation constant of Holo RIIα with agonist), 10 nM Holo RIIα, 3 minute preincubation): 294 nM | Agonist properties [5]: Yes | Antagonist properties [5]: No | relative potency* [5]: 1.00

Nc1ncnc2c1nc(-c1ccc(CO)o1)n2C1OC2COP(O)(=S)OC2C1O (stereo not shown) [Rp-8-(5-MeOH-2-furyl)-cAMPS, (Rp)-8-(2-Hydroxymethyl-5-furyl)adenosine-3′,5′-cyclic phosphorothioic acid tributylammonium salt]
Antagonist [1]: yes | relative potency* [1]: 0.68 | IC50 [1, 8]: 1980 nM | Agonist [2]: no | Agonist properties [5]: No | Antagonist properties [5]: Yes

CCc1nc2c(N)ncnc2n1C1OC2COP(O)(=S)OC2C1O (stereo not shown) [Rp-8-ethyl-cAMPS]
Antagonist [1]: yes | relative potency* [1]: 0.22 | IC50 [1, 8]: 6130 nM | Agonist [2]: no | Agonist properties [5]: No | Antagonist properties [5]: Yes

Nc1ncnc2c1nc(-c1ccco1)n2C1OC2COP(O)(=S)OC2C1O (stereo not shown) [Rp-8-(2-furyl)-cAMPS, (Rp)-8-(2-Furyl)adenosine-3′,5′-cyclic phosphorothioic acid ammonium salt]
Potency [1]: 4.24 | Antagonist [1]: yes | EC50 [1]: 319 nM | IC50 ([1]; Table 3, read-out: holo RIa Cook): 349 nM | relative potency* [1]: 4.24 | IC50 [1, 8]: 238 nM and 337 nM and 360 nM | Agonist [2]: no | relative inhibition* [3]: 59% | EC50RII/EC50RI*** [3]: 32 | Antagonist [3]: yes | EC50 [3]: 11.6 µM | relative potency** [3]: 1.28 | IC50 [3]: 11.6 µM and 16.7 µM | EC50 [6]: 377 nM | binding to 8-AHA cAMP surface ([6]; any concentration of antagonist): not affected | binding of holo complex at the Rp-8-AHA cAMPS surface ([6]; excess of antagonist 10 μM): completely blocked | effect in binding to the 8-AHA cAMP surface ([6]; excess of antagonist 10 μM): no effect | IFN-γ secretion of CD4+ T cells from the infected mice [7]: slightly increasing | TNF-α secretion by CD4 T cells of infected mice [7]: inhibited | TNF-α secretion of CD4+ T cells from the infected mice after stimulation with SEB [7]: reducing | significance (p) of effect on SEB stimulated TNF-α secretion by CD4 T cells [7]: 0.0041 | Agonist [4]: no | Agonist properties [5]: No | Antagonist properties [5]: Yes

Nc1ncnc2c1nc(-c1ccc(Br)o1)n2C1OC2COP(O)(=S)OC2C1O (stereo not shown) [Rp-8-(2-Br-5-furyl)-cAMPS]
Antagonist [1]: yes* | EC50 [1]: 3000 nM | relative potency* [1]: 0.45 | IC50 [1, 8]: 2900 nM | Agonist [2]: no | Agonist properties [5]: No | Antagonist properties [5]: Yes

CC(=O)c1nc2c(N)ncnc2n1C1OC2COP(O)(=S)OC2C1O (stereo not shown) [Rp-8-acetyl-cAMPS]
Antagonist [1]: yes | relative potency* [1]: 0.86 | IC50 [1, 8]: 1580 nM | Agonist [2]: no | Agonist properties [5]: No | Antagonist properties [5]: Yes

(Rp)-8-(2-Thiazolyl)adenosine-3′,5′-cyclic phosphorothioic acid ammonium salt [Rp-8-(2-thiazole)-cAMPS]
Agonist properties [5]: No | Antagonist properties [5]: Weak

Cc1ccc(-c2nc3c(N)ncnc3n2C2OC3COP(O)(=S)OC3C2O)o1 (stereo not shown) [Rp-8-(5-Me-2-furyl)-cAMPS, (Rp)-8-(5-Methyl-2-furyl)adenosine-3′,5′-cyclic phosphorothioic acid tributylammonium salt]
Antagonist [1]: yes | relative potency* [1]: 1.17 | IC50 [1, 8]: 1160 nM | Agonist [2]: no | Agonist properties [5]: No | Antagonist properties [5]: Yes

Nc1ncnc2c1nc(-c1ccoc1)n2C1OC2COP(O)(=S)OC2C1O (stereo not shown) [Rp-8-(3-furyl)-cAMPS, (Rp)-8-(3-Furyl)adenosine-3′,5′-cyclic phosphorothioic acid ammonium salt]
Potency [1]: 2.23 | Antagonist [1]: yes | relative potency* [1]: 2.23 | IC50 [1, 8]: 607 nM | Agonist [2]: no | EC50 [6]: 743 nM | Antagonist properties [5]: Yes

Nc1ncnc2c1nc(-c1cccs1)n2C1OC2COP(O)(=S)OC2C1O (stereo not shown) [Rp-8-(2-thienyl)-cAMPS, (Rp)-8-(2-Thienyl)adenosine-3′,5′-cyclic phosphorothioic acid ammonium salt]
Potency [1]: 3.01 | Antagonist [1]: yes | relative potency* [1]: 3.01 | IC50 [1, 8]: 449 nM | Agonist [2]: no | Agonist properties [5]: No | Antagonist properties [5]: Yes

Nc1ncnc2c1nc(-c1cc3ccccc3o1)n2C1OC2COP(O)(=S)OC2C1O (stereo not shown) [Rp-8-benzofuryl-cAMPS, (Rp)-8-(2-Benzofuryl)adenosine-3′,5′-cyclic phosphorothioic acid tributylammonium salt]
Antagonist [1]: yes | EC50 [1]: 2780 nM | relative potency* [1]: 0.49 | Agonist [2]: no | Agonist properties [5]: No | Antagonist properties [5]: Yes
